# Source: ChEMBL document CHEMBL1201862, “PubChem BioAssay data set” (2004)
#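 Exposure lasted 48 hours, with cells grown in 96-well plates and compounds tested at five concentrations. GI50 = concentration required for 50% inhibition of growth.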 Activity calls are given as the source filed them. No stated cut-off is given here; in the data, active = GI50 up to about 1.1 µM and inactive = higher.
# Tests used:
# Assay in all cases: DTP human tumour cell line panel, 48 h
# HT-29 = system: HT-29
# SK-OV-3 = system: SK-OV-3
# COLO 205 = system: COLO 205
# OVCAR-5 = system: OVCAR-5
# SNB-19 = system: SNB-19
# SNB-75 = system: SNB-75
# SF-268 = system: SF-268
# NCI-H226 = system: NCI-H226
# TK-10 = system: TK-10
# NCI-H522 = system: NCI-H522
# HOP-62 = system: HOP-62
# NCI-H23 = system: NCI-H23
# SR = system: SR
# MCF7 = system: MCF7
# PC-3 = system: PC-3
# UACC-62 = system: UACC-62
# RPMI-8226 = system: RPMI-8226
# HCT-116 = system: HCT-116
# M14 = system: M14
# SK-MEL-28 = system: SK-MEL-28
SMILES,GI50 (HT-29),GI50 (SK-OV-3),GI50 (COLO 205),GI50 (OVCAR-5),GI50 (SNB-19),GI50 (SNB-75),GI50 (SF-268),GI50 (NCI-H226),GI50 (TK-10),GI50 (NCI-H522),GI50 (HOP-62),GI50 (NCI-H23),GI50 (SR),GI50 (MCF7),GI50 (PC-3),GI50 (UACC-62),GI50 (RPMI-8226),GI50 (HCT-116),GI50 (M14),GI50 (SK-MEL-28)
Cc1ccc(O)c(C2=CC(c3cccc(Br)c3)SC(=N)N2)c1 (stereo unspecified),33.7 µM (inactive),28.8 µM (inactive),17.5 µM (inactive),29.5 µM (inactive),13.6 µM (inactive),19.5 µM (inactive),28.8 µM (inactive),26.9 µM (inactive),19.6 µM (inactive),16 µM (inactive),21.6 µM (inactive),25.6 µM (inactive),17.1 µM (inactive),23.3 µM (inactive),26.1 µM (inactive),17.1 µM (inactive),18 µM (inactive),17.3 µM (inactive),24.3 µM (inactive),–
CCCCCCCCCCCCCCC(O)C[N+](C)(CCO)CCO (stereo unspecified),2.12 µM (inactive),12.9 µM (inactive),1.72 µM (inactive),2.46 µM (inactive),1.49 µM (inactive),0.746 µM (active),1.89 µM (inactive),2.04 µM (inactive),1.39 µM (inactive),1.64 µM (inactive),2.19 µM (inactive),4.49 µM (inactive),1.92 µM (inactive),12.6 µM (inactive),1.72 µM (inactive),2.47 µM (inactive),1.92 µM (inactive),5.79 µM (inactive),1.59 µM (inactive),9.79 µM (inactive)
Cc1cccc(Nc2nc3ccccc3nc2NS(=O)(=O)c2ccccc2)c1,26.6 µM (inactive),25.2 µM (inactive),16.1 µM (inactive),> 100 µM (inactive),18.1 µM (inactive),14.4 µM (inactive),44.3 µM (inactive),70 µM (inactive),22.9 µM (inactive),17.3 µM (inactive),27.5 µM (inactive),18.3 µM (inactive),25.6 µM (inactive),26.5 µM (inactive),14.4 µM (inactive),25.6 µM (inactive),7.01 µM (inactive),27.4 µM (inactive),38.3 µM (inactive),38.7 µM (inactive)
CCNc1ccc2c(c1)Cc1ccccc1-2,50.5 µM (inactive),–,64.9 µM (inactive),> 100 µM (inactive),48.1 µM (inactive),> 100 µM (inactive),46.2 µM (inactive),54.7 µM (inactive),33.1 µM (inactive),32.7 µM (inactive),> 100 µM (inactive),14.3 µM (inactive),14.5 µM (inactive),23.7 µM (inactive),35.4 µM (inactive),40.7 µM (inactive),47.3 µM (inactive),> 100 µM (inactive),66.5 µM (inactive),> 100 µM (inactive)
Cc1c(-c2ccc(O)cc2)n(CCCCCCNCCOC(=O)NCCCc2ccc(N(CCCl)CCCl)cc2)c2ccc(O)cc12,1.59 µM (inactive),10.2 µM (inactive),2.64 µM (inactive),15.1 µM (inactive),13.2 µM (inactive),1.98 µM (inactive),1.52 µM (inactive),–,2.24 µM (inactive),1.69 µM (inactive),2.54 µM (inactive),1.78 µM (inactive),0.809 µM (active),0.766 µM (active),2.47 µM (inactive),1.79 µM (inactive),1.31 µM (inactive),1.52 µM (inactive),1.59 µM (inactive),4.21 µM (inactive)
COC(=O)/C=C(/C=C1/C(C#N)=C(N)N(c2ccc(Cl)cc2)C1(C)/C(=C/C(=O)OC)C(=O)OC)C(=O)OC (stereo unspecified),33.4 µM (inactive),52.5 µM (inactive),25.1 µM (inactive),> 100 µM (inactive),> 100 µM (inactive),20.5 µM (inactive),> 100 µM (inactive),–,60.1 µM (inactive),33.2 µM (inactive),> 100 µM (inactive),42.3 µM (inactive),29.6 µM (inactive),78.3 µM (inactive),34.6 µM (inactive),19.6 µM (inactive),24.7 µM (inactive),28.9 µM (inactive),76.9 µM (inactive),> 100 µM (inactive)
CC(CCCCNC(=O)OC(C)(C)C)NC(=O)NC(C)CCCCNC(=O)OC(C)(C)C (stereo unspecified),> 100 µM (inactive),> 100 µM (inactive),56.6 µM (inactive),> 100 µM (inactive),> 100 µM (inactive),> 100 µM (inactive),> 100 µM (inactive),54 µM (inactive),31.3 µM (inactive),> 100 µM (inactive),> 100 µM (inactive),> 100 µM (inactive),99.8 µM (inactive),95.3 µM (inactive),> 100 µM (inactive),73.6 µM (inactive),–,50.7 µM (inactive),> 100 µM (inactive),> 100 µM (inactive)
CC(=O)NC1C(OC(C)C(=O)NC(C(=O)NC(CCC(=O)NCCCNC2c3ccccc3Nc3cccc([N+](=O)[O-])c32)C(N)=O)C(C)C)C(O)C(CO)OC1(C)OCc1ccccc1 (stereo unspecified),0.152 µM (active),1.67 µM (inactive),0.556 µM (active),3.94 µM (inactive),1.56 µM (inactive),1.91 µM (inactive),0.998 µM (active),1.13 µM (inactive),0.133 µM (active),0.637 µM (active),1.27 µM (inactive),1.61 µM (inactive),0.215 µM (active),0.343 µM (active),1.37 µM (inactive),0.577 µM (active),0.353 µM (active),0.256 µM (active),1.18 µM (inactive),–
O=c1[nH][nH]c(=O)n1Cc1cccc(Cn2c(=O)[nH][nH]c2=O)c1,> 100 µM (inactive),> 100 µM (inactive),> 100 µM (inactive),> 100 µM (inactive),> 100 µM (inactive),> 100 µM (inactive),> 100 µM (inactive),> 100 µM (inactive),> 100 µM (inactive),> 100 µM (inactive),–,> 100 µM (inactive),> 100 µM (inactive),> 100 µM (inactive),> 100 µM (inactive),> 100 µM (inactive),> 100 µM (inactive),> 100 µM (inactive),> 100 µM (inactive),> 100 µM (inactive)
CNc1cc2oc(=O)cc(C)c2cc1C,> 100 µM (inactive),–,> 100 µM (inactive),> 100 µM (inactive),> 100 µM (inactive),85.3 µM (inactive),> 100 µM (inactive),> 100 µM (inactive),86.3 µM (inactive),> 100 µM (inactive),> 100 µM (inactive),> 100 µM (inactive),36.4 µM (inactive),96.8 µM (inactive),> 100 µM (inactive),72.6 µM (inactive),> 100 µM (inactive),> 100 µM (inactive),> 100 µM (inactive),> 100 µM (inactive)
CC(C)=CCc1cc(/C=C/C(=O)O)cc(CC=C(C)C)c1O [ARTEPILLIN],47.3 µM (inactive),> 100 µM (inactive),> 100 µM (inactive),> 100 µM (inactive),> 100 µM (inactive),–,> 100 µM (inactive),–,> 100 µM (inactive),31.3 µM (inactive),> 100 µM (inactive),> 100 µM (inactive),> 100 µM (inactive),> 100 µM (inactive),> 100 µM (inactive),66.8 µM (inactive),76.6 µM (inactive),> 100 µM (inactive),> 100 µM (inactive),–
c1cnn(C23C4C5C6C4C2C6C53)c1 (stereo unspecified),> 100 µM (inactive),> 100 µM (inactive),> 100 µM (inactive),> 100 µM (inactive),> 100 µM (inactive),> 100 µM (inactive),> 100 µM (inactive),60.4 µM (inactive),> 100 µM (inactive),> 100 µM (inactive),> 100 µM (inactive),> 100 µM (inactive),> 100 µM (inactive),> 100 µM (inactive),> 100 µM (inactive),–,> 100 µM (inactive),> 100 µM (inactive),–,> 100 µM (inactive)
CCOC(=O)CCC(C(=O)OCC)n1nnc2ccc(Nc3c(C)[n+]([O-])c4cc(Cl)ccc4[n+]3[O-])cc21 (stereo unspecified),27.2 µM (inactive),99.5 µM (inactive),19.3 µM (inactive),46.5 µM (inactive),> 100 µM (inactive),44.7 µM (inactive),18.8 µM (inactive),26.5 µM (inactive),71.8 µM (inactive),19.5 µM (inactive),31.9 µM (inactive),24.8 µM (inactive),30.3 µM (inactive),17.9 µM (inactive),53.8 µM (inactive),17.4 µM (inactive),20.9 µM (inactive),25.1 µM (inactive),19 µM (inactive),–
COc1cc(OCc2ccc3nc(-c4ccccc4)c(Cl)nc3c2)cc(OC)c1OC,> 100 µM (inactive),–,> 100 µM (inactive),77.1 µM (inactive),52.7 µM (inactive),48.4 µM (inactive),> 100 µM (inactive),–,19.4 µM (inactive),33.3 µM (inactive),33.3 µM (inactive),40.3 µM (inactive),> 100 µM (inactive),59.7 µM (inactive),> 100 µM (inactive),83.2 µM (inactive),> 100 µM (inactive),76.6 µM (inactive),> 100 µM (inactive),> 100 µM (inactive)
c1ccc(COc2ncccc2C2SCCCS2)cc1,–,–,> 100 µM (inactive),> 100 µM (inactive),> 100 µM (inactive),–,> 100 µM (inactive),> 100 µM (inactive),> 100 µM (inactive),> 100 µM (inactive),> 100 µM (inactive),> 100 µM (inactive),70 µM (inactive),84.3 µM (inactive),> 100 µM (inactive),> 100 µM (inactive),> 100 µM (inactive),> 100 µM (inactive),> 100 µM (inactive),> 100 µM (inactive)
